Laboratory results reported in ChEMBL document CHEMBL3885861, “Open TG-GATES”.

Species on record: Rattus norvegicus
Assay: Open TG-GATES - Regimen: Single
Type: toxicity, organism-based, Sprague-Dawley
Parameters: regimen Single, gender Male, age 6 weeks
Settings: in vivo, po, 1 mg/kg, route gavage, dose level Low; for APTT / Bas / Eos / Fbg / Hb / Ht / Lym / MCH / MCHC / MCV / Mono / Neu / PT / Plat / RBC / Ret / WBC: tissue Blood; for KIDNEY_L / KIDNEY_R / KIDNEY_TOTAL: tissue Kidney; for LIVER: tissue Liver; for A/G / ALP / ALT / AST / BUN / CRE / Ca / Cl / DBIL / GLC / IP / K / LDH / Na / PL / RALB / TBIL / TC / TG / TP / gamma-GTP: tissue Plasma

## O=NN(CCCl)C(=O)NC1CCCCC1 [LOMUSTINE]
3 h
  TERMINAL_BW: 204.1 g
  APTT: 16.5 s
  Bas: 0%
  Eos: 0.2%
  Fbg: 224.2 mg/dL
  Hb: 13.4 g/dL
  Ht: 40.4%
  Lym: 78.8%
  MCH: 21.6 pg
  MCHC: 33.2%
  MCV: 65.2 fL
  Mono: 8.4%
  Neu: 12.2%
  PT: 11.3 s
  Plat: 105.5 x10_4/uL
  RBC: 619 x10_4/ul
  Ret: 8.6%
  WBC: 119.1 x10_2/uL
  KIDNEY_L: 0.9 g
  KIDNEY_R: 0.9 g
  KIDNEY_TOTAL: 1.9 g
  LIVER: 9.6 g
  A/G: 2
  ALP: 970.8 IU/L
  ALT: 33.4 IU/L
  AST: 60 IU/L
  BUN: 11 mg/dL
  CRE: 0.5 mg/dL
  Ca: 11.4 mg/dL
  Cl: 105.8 meq/L
  DBIL: 0.028 mg/dL
  GLC: 184.2 mg/dL
  IP: 10 mg/dL
  K: 4.8 meq/L
  LDH: 82.2 IU/L
  Na: 139.8 meq/L
  PL: 135.8 mg/dL
  RALB: 3.7 g/dL
  TBIL: 0.3 mg/dL
  TC: 79 mg/dL
  TG: 52.4 mg/dL
  TP: 5.6 g/dL
  gamma-GTP: 1.4 IU/L
6 h
  TERMINAL_BW: 203.2 g
  APTT: 16.9 s
  Bas: 0%
  Eos: 0.4%
  Fbg: 227.8 mg/dL
  Hb: 13.4 g/dL
  Ht: 40.2%
  Lym: 82%
  MCH: 21.8 pg
  MCHC: 33.3%
  MCV: 65.6 fL
  Mono: 5.8%
  Neu: 11.8%
  PT: 12.2 s
  Plat: 96.8 x10_4/uL
  RBC: 613.2 x10_4/ul
  Ret: 9%
  WBC: 116.2 x10_2/uL
  KIDNEY_L: 0.9 g
  KIDNEY_R: 0.9 g
  KIDNEY_TOTAL: 1.9 g
  LIVER: 9 g
  A/G: 2
  ALP: 759.8 IU/L
  ALT: 33.2 IU/L
  AST: 66.6 IU/L
  BUN: 11.2 mg/dL
  CRE: 0.5 mg/dL
  Ca: 10.9 mg/dL
  Cl: 104.6 meq/L
  DBIL: 0.008 mg/dL
  GLC: 188.6 mg/dL
  IP: 10.5 mg/dL
  K: 5.1 meq/L
  LDH: 90.2 IU/L
  Na: 140.8 meq/L
  PL: 142.8 mg/dL
  RALB: 3.7 g/dL
  TBIL: 0.2 mg/dL
  TC: 84 mg/dL
  TG: 41.2 mg/dL
  TP: 5.5 g/dL
  gamma-GTP: 1.4 IU/L
9 h
  TERMINAL_BW: 200.6 g
  APTT: 16.5 s
  Bas: 0%
  Eos: 0.6%
  Fbg: 220.2 mg/dL
  Hb: 13.3 g/dL
  Ht: 40.4%
  Lym: 78.6%
  MCH: 21.9 pg
  MCHC: 32.9%
  MCV: 66.4 fL
  Mono: 6.6%
  Neu: 14.2%
  PT: 12.4 s
  Plat: 99.4 x10_4/uL
  RBC: 608 x10_4/ul
  Ret: 9%
  WBC: 86.7 x10_2/uL
  KIDNEY_L: 0.9 g
  KIDNEY_R: 0.9 g
  KIDNEY_TOTAL: 1.8 g
  LIVER: 8.6 g
  A/G: 2.5
  ALP: 787 IU/L
  ALT: 32 IU/L
  AST: 62.6 IU/L
  BUN: 8.8 mg/dL
  CRE: 0.5 mg/dL
  Ca: 10.6 mg/dL
  Cl: 105.8 meq/L
  DBIL: 0.036 mg/dL
  GLC: 184.6 mg/dL
  IP: 10.2 mg/dL
  K: 4.6 meq/L
  LDH: 76.6 IU/L
  Na: 138.4 meq/L
  PL: 127.4 mg/dL
  RALB: 3.9 g/dL
  TBIL: 0.4 mg/dL
  TC: 72.4 mg/dL
  TG: 39 mg/dL
  TP: 5.5 g/dL
  gamma-GTP: 4.2 IU/L
24 h
  TERMINAL_BW: 218.5 g
  APTT: 18.1 s
  Bas: 0%
  Eos: 1%
  Fbg: 201 mg/dL
  Hb: 12.6 g/dL
  Ht: 37.9%
  Lym: 80.8%
  MCH: 21.8 pg
  MCHC: 33.4%
  MCV: 65.3 fL
  Mono: 5.8%
  Neu: 12.6%
  PT: 12.2 s
  Plat: 94.4 x10_4/uL
  RBC: 580.2 x10_4/ul
  Ret: 9%
  WBC: 138.2 x10_2/uL
  KIDNEY_L: 1 g
  KIDNEY_R: 1 g
  KIDNEY_TOTAL: 2 g
  LIVER: 10.7 g
  A/G: 2.2
  ALP: 961 IU/L
  ALT: 37.6 IU/L
  AST: 68.4 IU/L
  BUN: 15.8 mg/dL
  CRE: 0.5 mg/dL
  Ca: 11.1 mg/dL
  Cl: 104.6 meq/L
  DBIL: 0.018 mg/dL
  GLC: 185.4 mg/dL
  IP: 7.6 mg/dL
  K: 4.8 meq/L
  LDH: 100.6 IU/L
  Na: 138 meq/L
  PL: 144.6 mg/dL
  RALB: 3.9 g/dL
  TBIL: 0.3 mg/dL
  TC: 76 mg/dL
  TG: 98 mg/dL
  TP: 5.7 g/dL
  gamma-GTP: 1.8 IU/L
